This passage reports Kd results from patent US6090839A, “Antidiabetic agents” (Merck & Co., Inc., priority 1997, dated 2000).

One may read the Kd as the constant that tells how readily two partners part at equilibrium.

One assay concerns the target T1, human PPARγ2 (Homo sapiens, UniProt P37231).
T1 construct: The full length human cDNA for PPARγ2 and PPARδ were subcloned; made in house; host or cells: E. coli
T1 sequence (P37231 1-505): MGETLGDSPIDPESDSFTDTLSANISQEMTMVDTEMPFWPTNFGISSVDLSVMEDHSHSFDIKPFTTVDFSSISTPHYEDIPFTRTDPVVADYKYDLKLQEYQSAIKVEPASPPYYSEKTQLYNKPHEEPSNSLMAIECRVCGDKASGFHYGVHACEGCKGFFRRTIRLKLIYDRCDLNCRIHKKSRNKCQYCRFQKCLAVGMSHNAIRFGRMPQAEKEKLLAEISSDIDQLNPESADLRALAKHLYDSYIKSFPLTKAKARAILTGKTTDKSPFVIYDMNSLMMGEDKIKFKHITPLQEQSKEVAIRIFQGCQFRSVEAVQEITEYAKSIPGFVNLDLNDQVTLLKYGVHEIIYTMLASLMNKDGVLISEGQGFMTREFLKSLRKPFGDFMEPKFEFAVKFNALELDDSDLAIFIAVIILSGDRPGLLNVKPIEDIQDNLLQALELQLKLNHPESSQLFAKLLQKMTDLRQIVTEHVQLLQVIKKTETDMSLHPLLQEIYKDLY
Put plainly: PPAR Receptor Binding Assay: [3H]AD-5075 Displacement Assay for PPARγ2. The following applies: [3H2]AD-5075, gst-PPARγ2, ~16 h at 4° C., pH 7.2. The source says: (§1) Compounds of the instant invention which are useful for the above discussed treatments can be identified and/or characterized by employing the PPARδ, and γ binding assays. The assays are useful in predicting or quantitating in vivo effects having to do with the control or modulation of glucose, free fatty acid, triglyceride, insulin or cholesterol. To evaluate IC50 or EC50, values the compounds were titrated in the appropriate assay using different concentrations of the compound to be tested. To obtain the appropriate values (%Inhibition-IC50, or %Activation-EC50), the data resulting from the assays were then analyzed by determining the best fit of a 4 parameter function to the data using the Levenberg-Marquardt non-linear fitting algorithm in Kaleidagraph (Synergy Software, Reading, Pa). The human nuclear receptor cDNA for PPARδ (hPPARδ) has been cloned from a human osteosarcoma cell cDNA library and is fully described in A. Schmidt et al., Molecular Endocrinology, 6:1634-1641 (1992), herein incorporated by reference in its entirety. See A. Elbrecht et al., Biochem. and Biophy. Res. Comm. 224:431-437 (1996) and T. Sher et al., Biochem. 32:5598-5604 (1993) for a description of the human nuclear receptor gene PPARγ, and α.
Human PPARγ2 and PPARδ, independently, were prepared as gst-fusion proteins in E. coli. […]

A further assay concerns the target T2, human PPARδ (Homo sapiens, UniProt Q03181).
T2 construct: The full length human cDNA for PPARγ2 and PPARδ were subcloned; made in house; host or cells: E. coli
T2 sequence (Q03181 1-441): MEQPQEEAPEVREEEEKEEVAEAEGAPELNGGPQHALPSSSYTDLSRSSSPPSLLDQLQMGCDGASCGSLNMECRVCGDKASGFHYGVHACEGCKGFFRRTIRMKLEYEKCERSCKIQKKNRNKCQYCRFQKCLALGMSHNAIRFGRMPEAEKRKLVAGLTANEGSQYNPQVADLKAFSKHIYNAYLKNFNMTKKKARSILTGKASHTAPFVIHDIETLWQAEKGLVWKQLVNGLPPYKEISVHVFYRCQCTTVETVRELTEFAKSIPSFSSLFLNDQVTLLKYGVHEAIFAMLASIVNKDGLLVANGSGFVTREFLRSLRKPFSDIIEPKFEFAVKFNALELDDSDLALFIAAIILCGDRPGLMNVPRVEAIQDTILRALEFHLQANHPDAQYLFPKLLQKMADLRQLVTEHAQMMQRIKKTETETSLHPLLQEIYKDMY
Description: PPAR Receptor Binding Assay: [3H2]Example 11 Displacement Assay for PPARδ. Particulars: [3H2]Example 11, gst-PPARδ, ~16 h at 4° C., pH 7.2.
Source text: as §1
The hPPARδ binding assay comprises the steps of: […]

With `Cc1oc(-c2ccccc2)nc1C(O)COc1ccc(CC2SC(=O)NC2=O)cc1` (centres unmarked) [AD-5075], on human PPARγ2, the equilibrium dissociation constant (Kd) is ~1 nM.
As for `CCCc1c(OCCc2cc3c4c(ccc3o2)C(C(=O)O)CCC4)ccc2c(-c3ccccc3)noc12` (centres unmarked) [Example 11, 2-(2-(3-phenyl-7-propylbenz[4,5]isoxazol-6-yloxy)ethyl)-4,5,6,7-tetrahydronaphtho[2,1-b]furan-7-carboxylic acid], at human PPARδ, the Kd was ~1 nM.
